For four compounds, viscosity, speed of sound and mass density results are on record in the NIST ThermoML archive (doi:10.1016/j.jct.2013.10.025).

For the data set the following is noted: 298.15 K, 101.33 kPa, Liquid; for viscosity: Capillary tube (Ostwald / Ubbelohde) method; for speed of sound: Sing-around technique in a fixed-path interferometer; for mass density: Vibrating tube method.

Numbers after ± are expanded uncertainties.

With `CCCCCCCCCCO` [decan-1-ol], the viscosity is on record as 10.61 ± 0.37 mPa·s, the speed of sound is recorded as 1379.3 ± 1.6 m/s and the mass density is 826.407 ± 0.24 kg/m3.

Regarding `CCCCCCO` [hexan-1-ol], the viscosity is on record as 4.436 ± 0.36 mPa·s, the speed of sound came to 1303.5 ± 1.5 m/s and the mass density is recorded as 815.295 ± 0.24 kg/m3.

Turning to `CCCCCCCCO` [octan-1-ol], the viscosity is given as 7.446 ± 0.36 mPa·s, the speed of sound came out at 1347.9 ± 1.5 m/s and the mass density stood at 821.837 ± 0.24 kg/m3.

As to `C1CCOC1` [tetrahydrofuran], the viscosity was found to be 0.474 mPa·s, the speed of sound is recorded as 1280.1 ± 1.5 m/s and the mass density is 882.15 ± 0.23 kg/m3.

What is called viscosity is the resistance of a fluid to flow. As a reminder, the speed of sound is the propagation velocity of pressure waves in the medium. Usually mass density stands for mass per unit of volume.
